According to patent US20230233576A1, “ECLITASERTIB FOR USE IN TREATING CONDITIONS INVOLVING SYSTEMIC HYPERINFLAMMATORY RESPONSE” (priority 2020, published 2023):

System: adult participants hospitalized for severe COVID-19
Assay: Phase 1b severe COVID-19 study: ECG abnormalities (PCSA)
Format: in vivo, human
Settings: 600 mg
Protocol: Physical examination including lung auscultation and assessment of consciousness, vital sign, electrocardiogram (ECG) parameters were measured per protocol.
For laboratory parameters (hematology, clinical chemistry, and urinalysis), vital signs, and ECG, incidences of potentially clinically significant abnormality (PCSA) values, actual values and change from baseline were summarized by treatment group.
For all laboratory, vital signs and ECG parameters, raw data and change from baseline were summarized in descriptive statistics by treatment group and scheduled time of measurement, with the exception of AST, ALT and alkaline phosphatase: instead of summarizing data in descriptive statistics, participants' profiles were presented through graphics by treatment group and with a color code to identify sites. The reason was that blood samples were processed by local laboratories with different normal ranges. For the rest of clinical laboratory these parameters it is reasonable to pool data as they are standard procedure and no significant differences in normal ranges were expected.

[1] = individual participant 70.0 kg, Discharge Before Day 15
[2] = individual participant 87.2 kg, Discharge Before Day 15
[3] = individual participant 120.0 kg, Day 15
[4] = individual participant 125.0 kg, Discharge Before Day 15

CN1C(=O)[C@@H](NC(=O)c2nnc(Cc3ccccc3)[nH]2)COc2cccnc21 [RIPKl Inhibitor]
HR (bpm) Delta (change from baseline) [1]: −25 bpm
HR (bpm) Value [1]: 76 bpm
PR % change from baseline [1]: 0.0%
PR (ms) Value [1]: 120 ms
QRS % change from baseline [1]: −38%
QRS (ms) Value [1]: 100 ms
QT (ms) Delta (change from baseline) [1]: 100 ms
QT (ms) Value [1]: 460 ms
QTcB (ms) Delta (change from baseline) [1]: 50 + ms
QTcB (ms) Value [1]: 517 ++ ms
QTcF (ms) Delta (change from baseline) [1]: 75 ++ ms
QTcF (ms) Value [1]: 495 ++ ms
HR (bpm) Delta (change from baseline) [2]: 18 bpm
HR (bpm) Value [2]: 86 bpm
PR % change from baseline [2]: 0.0%
PR (ms) Value [2]: 150 ms
QRS % change from baseline [2]: 25.0%
QRS (ms) Value [2]: 100 ms
QT (ms) Delta (change from baseline) [2]: 30 ms
QT (ms) Value [2]: 370 ms
QTcB (ms) Delta (change from baseline) [2]: 81 ++ ms
QTcB (ms) Value [2]: 443 ms
QTcF (ms) Delta (change from baseline) [2]: 63 ++ ms
QTcF (ms) Value [2]: 417 ms
HR (bpm) Delta (change from baseline) [3]: 0 bpm
HR (bpm) Value [3]: 69 bpm
PR % change from baseline [3]: 31.9%
PR (ms) Value [3]: 124 ms
QRS % change from baseline [3]: −28%
QRS (ms) Value [3]: 82 ms
QT (ms) Delta (change from baseline) [3]: 4 ms
QT (ms) Value [3]: 482 ms
QTcB (ms) Delta (change from baseline) [3]: 4 ms
QTcB (ms) Value [3]: 518 ++ ms
HR (bpm) Delta (change from baseline) [4]: −6 bpm
HR (bpm) Value [4]: 77 bpm
PR % change from baseline [4]: 0.0%
PR (ms) Value [4]: 160 ms
QRS % change from baseline [4]: −4.8%
QRS (ms) Value [4]: 80 ms
QT (ms) Delta (change from baseline) [4]: 118 ms
QT (ms) Value [4]: 466 ms
QTcB (ms) Delta (change from baseline) [4]: 121 ++ ms
QTcB (ms) Value [4]: 530 ++ ms
